The structures appear in SMILES notation. pIC50: −log10 of the molar value.

The experiment concerns the target T1, recombinant human PSMA (rhPSMA) (Homo sapiens, UniProt Q04609).
T1 construct: purchased Sino Biological
Briefly: Naaladase assay (fluorescence-based Naaladase activity inhibition). The experiment is classed as biochemical. The settings on record: rhPSMA 0.4 μg/mL, substrate N-Acetyl-Asp-Glu 40 μM, 37° C. one hour. The procedure:
Naaladase activity inhibition was determined using a fluorescence-based assay. Briefly, the solution containing the substrate N-Acetyl-Asp-Glu (Sigma-Aldrich) at 40 μM and the compound at concentrations from 0.15 nM to 1000 nM was mixed at equal volume with recombinant human PSMA (rhPSMA, Sino Biological) at 0.4 μg/mL, in assay buffer (50 mM HEPES, 100 mM NaCl, pH 7.5). The enzymatic reaction was proceeded by incubation at 37° C. for one hour and then stopped by heating at 95° C. for 5 minutes. A solution of 15 mM ortho-phthaldialdehyde (Sigma-Aldrich) was added to all vials and incubated for 10 min at ambient temperature. The reaction solutions were loaded onto a 96-well flat clear bottom black microplates (Corning) and read at excitation and emission wavelengths of 330 and 450 nm, respectively, using a microplate reader (Tecan). The data were analyzed by a one-site total binding regression algorithm of GraphPad Prism (GraphPad Software).

T1 sequence (Q04609 whole entry): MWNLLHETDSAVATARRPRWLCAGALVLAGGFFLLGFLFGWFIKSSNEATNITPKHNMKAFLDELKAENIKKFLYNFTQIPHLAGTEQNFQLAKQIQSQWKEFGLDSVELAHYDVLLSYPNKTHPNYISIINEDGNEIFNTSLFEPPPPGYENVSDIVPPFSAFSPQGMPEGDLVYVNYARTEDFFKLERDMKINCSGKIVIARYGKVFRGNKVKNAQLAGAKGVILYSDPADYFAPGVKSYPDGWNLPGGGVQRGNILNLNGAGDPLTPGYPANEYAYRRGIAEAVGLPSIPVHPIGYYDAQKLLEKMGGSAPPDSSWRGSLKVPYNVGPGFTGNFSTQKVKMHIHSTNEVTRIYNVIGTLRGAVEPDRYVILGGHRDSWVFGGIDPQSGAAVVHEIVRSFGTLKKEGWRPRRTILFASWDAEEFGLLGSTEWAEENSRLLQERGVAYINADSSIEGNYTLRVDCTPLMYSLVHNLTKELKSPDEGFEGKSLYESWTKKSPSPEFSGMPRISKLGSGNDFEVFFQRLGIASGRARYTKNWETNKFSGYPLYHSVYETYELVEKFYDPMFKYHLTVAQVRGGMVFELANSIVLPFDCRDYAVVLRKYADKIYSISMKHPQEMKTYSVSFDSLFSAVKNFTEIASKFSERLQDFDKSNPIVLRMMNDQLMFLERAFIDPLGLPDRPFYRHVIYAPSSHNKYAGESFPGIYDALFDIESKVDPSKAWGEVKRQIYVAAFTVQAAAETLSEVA

As a reminder, the pIC50 is the negative decadic logarithm of the IC50, by convention in mol/L. Take `O=C(O)CCC[C@H](NC(=O)N[C@@H](CCCCNC(=O)[C@H](Cc1c2ccccc2cc2ccccc12)Nc1c(NC23CCC(CNC(=O)CN4CCN(CC(=O)O)CCN(CC(=O)O)CCN(CC(=O)O)CC4)(CC2)CC3)c(=O)c1=O)C(=O)O)C(=O)O` [E2, (S)-2-(3-((S)-5-((S)-3-(anthracen-9-yl)-2-((3,4-dioxo-2-((4-((2-(4,7,10-tris(carboxymethyl)-1,4,7,10-tetraazacyclododecan-1-yl)acetamido)methyl)bicyclo[2.2.2]octan-1-yl)amino)cyclobut-1-en-1-yl)amino)propanamido)-1-carboxypentyl)ureido)hexanedioic acid]: the pIC50 was 8.40.

In the case of `O=C(O)CC[C@H](NC(=O)N[C@@H](CCCCNC(=O)[C@H](Cc1ccc2ccccc2c1)Nc1c(Nc2ccc3c(c2)CCN(C(=O)CN2CCN(CC(=O)O)CCN(CC(=O)O)CCN(CC(=O)O)CC2)C3)c(=O)c1=O)C(=O)O)C(=O)O` [E5], the pIC50 is 8.52.

`O=C(O)CCC[C@H](NC(=O)N[C@@H](CCCCNC(=O)[C@H](Cc1c2ccccc2cc2ccccc12)Nc1c(N[C@H]2CC[C@H](c3nnc(CN4CCN(CC(=O)O)CCN(CC(=O)O)CCN(CC(=O)O)CC4)o3)CC2)c(=O)c1=O)C(=O)O)C(=O)O` [E11]: the pIC50 was 8.00.

In the case of `NC(=O)CN1CCN(CC(=O)O)CCN(CC(=O)NC23CCC(Nc4c(N[C@@H](Cc5c6ccccc6cc6ccccc56)C(=O)NCCCC[C@H](NC(=O)N[C@@H](CNC(=O)C(=O)O)C(=O)O)C(=O)O)c(=O)c4=O)(CC2)CC3)CCN(CC(=O)O)CC1` [E16], the pIC50 was 8.46.

With `NC(=O)CN1CCN(CC(=O)O)CCN(Cc2nnc(C34CCC(Nc5c(N[C@@H](Cc6c7ccccc7cc7ccccc67)C(=O)NCCCC[C@H](NC(=O)N[C@@H](CCCC(=O)O)C(=O)O)C(=O)O)c(=O)c5=O)(CC3)CC4)o2)CCN(CC(=O)O)CC1` [E20], the pIC50 is 8.74.

With `O=C(O)CN1CCN(CC(=O)O)CCN(CC(=O)NC23CCC(Nc4c(N[C@@H](Cc5ccc6ccccc6c5)C(=O)NCCCC[C@H](NC(=O)N[C@@H](CNC(=O)C(=O)O)C(=O)O)C(=O)O)c(=O)c4=O)(CC2)CC3)CCN(CC(=O)O)CC1` [E21, (4S,8S,15S)-15-((3,4-dioxo-2-((4-(2-(4,7,10-tris(carboxymethyl)-1,4,7,10-tetraazacyclododecan-1-yl)acetamido)bicyclo[2.2.2]octan-1-yl)amino)cyclobut-1-en-1-yl)amino)-16-(naphthalen-2-yl)-1,6,14-trioxo-2,5,7,13-tetraazahexadecane-1,4,8-tricarboxylic acid], the pIC50 was 8.82.

Regarding `O=C(O)CN1CCN(CC(=O)O)CCN(CC(=O)NC23CCC(Nc4cc(N[C@@H](Cc5c6ccccc6cc6ccccc56)C(=O)NCCCC[C@H](NC(=O)N[C@@H](CNC(=O)C(=O)O)C(=O)O)C(=O)O)ncn4)(CC2)CC3)CCN(CC(=O)O)CC1` [E22, (4S,8S,15S)-16-(anthracen-9-yl)-1,6,14-trioxo-15-((6-((4-(2-(4,7,10-tris(carboxymethyl)-1,4,7,10-tetraazacyclododecan-1-yl)acetamido)bicyclo[2.2.2]octan-1-yl)amino)pyrimidin-4-yl)amino)-2,5,7,13-tetraazahexadecane-1,4,8-tricarboxylic acid], the pIC50 is 8.31.

Consider `O=C(O)CC[C@H](NC(=O)N[C@@H](CCCCNC(=O)[C@H](Cc1ccc2ccccc2c1)Nc1cc(NC23CCC(NC(=O)CN4CCN(CC(=O)O)CCN(CC(=O)O)CCN(CC(=O)O)CC4)(CC2)CC3)ncn1)C(=O)O)C(=O)O` [E24], for which the pIC50 was 8.07.

For the molecule `COc1nc(N[C@@H](Cc2ccc3ccccc3c2)C(=O)NCCCC[C@H](NC(=O)N[C@@H](CCC(=O)O)C(=O)O)C(=O)O)cc(NC23CCC(NC(=O)CN4CCN(CC(=O)O)CCN(CC(=O)O)CCN(CC(=O)O)CC4)(CC2)CC3)n1` [E25], the pIC50 is 7.64.

In the case of `O=C(O)CN1CCN(CC(=O)O)CCN(CC(=O)NC23CCC(Nc4nnc(N[C@@H](Cc5c6ccccc6cc6ccccc56)C(=O)NCCCC[C@H](NC(=O)N[C@@H](CNC(=O)C(=O)O)C(=O)O)C(=O)O)s4)(CC2)CC3)CCN(CC(=O)O)CC1` [E26], the pIC50 was 8.02.

The record behind these values is patent US20260176254A1, “INHIBITORS OF PROSTATE SPECIFIC MEMBRANE ANTIGEN AND USE THEREOF” (SHANGHAI SINOTAU BIOTECH. CO., LTD, priority 2023, published 2026).
